Data as given in patent US20210323950A1, “HERBICIDALLY ACTIVE BICYCLIC BENZOYLPYRAZOLES” (Bayer Aktiengesellschaft, priority 2018, published 2021).

Key:
Format in all cases: in vivo
Setaria viridis (SETVI) [1] = experiment: Pre-emergence herbicidal action against SETVI; settings: 80 g/ha, scored visually after about 3 weeks vs untreated controls
Source text: (§1) SETVI: Setaria viridis 1. Pre-Emergence Herbicidal Action and Crop Plant Compatibility Seeds of monocotyledonous and dicotyledonous weed plants and crop plants are placed in plastic or organic planting pots and covered with soil. The compounds of the invention, formulated in the form of wettable powders (WP) or as emulsion concentrates (EC), are then applied onto the surface of the covering soil as aqueous suspension or emulsion with addition of 0.5% additive at a water application rate of […] (converted). After the treatment, the pots are placed in a greenhouse and kept under good growth conditions for the trial plants. After about 3 weeks, the effect of the preparations is scored visually in comparison with untreated controls as percentages. The tables below show the herbicidal activity of numerous compounds according to the invention against important harmful plants. For example, 100% activity=the plants have died, 0% activity=like control plants.

[2] = system: Abutilon theophrasti (ABUTH); experiment: Post-emergence herbicidal action against ABUTH; settings: 20 g/ha, post-emergence at one-leaf stage, rated visually after about 3 weeks vs untreated controls
Method: (§2) ABUTH: Abutilon theophrasti 2. Post-Emergence Herbicidal Action and Crop Plant Compatibility Seeds of monocotyledonous and dicotyledonous weeds and crop plants are placed in sandy loam in plastic or organic planting pots, covered with soil and cultivated in a greenhouse under controlled growth conditions. 2 to 3 weeks after sowing, the test plants are treated at the one-leaf stage. The compounds of the invention, formulated in the form of wettable powders (WP) or as emulsion concentrates (EC), are then sprayed onto the green parts of the plants as aqueous suspension or emulsion with addition of 0.5% additive at a water application rate of […] (converted). After the test plants had been kept in the greenhouse under optimum growth conditions for about 3 weeks, the activity of the preparations is rated visually in comparison to untreated controls. The tables below show the herbicidal activity of numerous compounds according to the invention against important harmful plants. For example, 100% activity=the plants have died, 0% activity=like control plants.

[3] = system: Amaranthus retroflexus (AMARE); experiment: Pre-emergence herbicidal action against AMARE; settings: 80 g/ha, scored visually after about 3 weeks vs untreated controls
Source text: as §1, with “AMARE: Amaranthus retroflexus” for “SETVI: Setaria viridis”

Viola tricolor (VIOTR) [4] = experiment: Pre-emergence herbicidal action against VIOTR; settings: 80 g/ha, scored visually after about 3 weeks vs untreated controls
Source text: as §1, with “VIOTR: Viola tricolor” for “SETVI: Setaria viridis”

Stellaria media (STEME) [5] = experiment: Pre-emergence herbicidal action against STEME; settings: 80 g/ha, scored visually after about 3 weeks vs untreated controls
Source text: as §1, with “STEME: Stellaria media” for “SETVI: Setaria viridis”

Setaria viridis (SETVI) [6] = experiment: Post-emergence herbicidal action against SETVI; settings: 20 g/ha, post-emergence at one-leaf stage, rated visually after about 3 weeks vs untreated controls
Method: as §2, with “SETVI: Setaria viridis” for “ABUTH: Abutilon theophrasti”

[7] = system: Echinochloa crus-galli (ECHCG); experiment: Pre-emergence herbicidal action against ECHCG; settings: 80 g/ha, scored visually after about 3 weeks vs untreated controls
Source text: as §1, with “ECHCG: Echinochloa crus-galli” for “SETVI: Setaria viridis”

[8] = system: Echinochloa crus-galli (ECHCG); experiment: Post-emergence herbicidal action against ECHCG; settings: 20 g/ha, post-emergence at one-leaf stage, rated visually after about 3 weeks vs untreated controls
Method: as §2, with “ECHCG: Echinochloa crus-galli” for “ABUTH: Abutilon theophrasti”

[9] = system: Abutilon theophrasti (ABUTH); experiment: Pre-emergence herbicidal action against ABUTH; settings: 80 g/ha, scored visually after about 3 weeks vs untreated controls
Source text: as §1, with “ABUTH: Abutilon theophrasti” for “SETVI: Setaria viridis”

Stellaria media (STEME) [10] = experiment: Post-emergence herbicidal action against STEME; settings: 20 g/ha, post-emergence at one-leaf stage, rated visually after about 3 weeks vs untreated controls
Method: as §2, with “STEME: Stellaria media” for “ABUTH: Abutilon theophrasti”

[11] = system: Amaranthus retroflexus (AMARE); experiment: Post-emergence herbicidal action against AMARE; settings: 20 g/ha, post-emergence at one-leaf stage, rated visually after about 3 weeks vs untreated controls
Method: as §2, with “AMARE: Amaranthus retroflexus” for “ABUTH: Abutilon theophrasti”

Veronica persica (VERPE) = experiment: Pre-emergence herbicidal action against VERPE; settings: 80 g/ha, scored visually after about 3 weeks vs untreated controls
Source text: as §1, with “VERPE: Veronica persica” for “SETVI: Setaria viridis”

Viola tricolor (VIOTR) [12] = experiment: Post-emergence herbicidal action against VIOTR; settings: 20 g/ha, post-emergence at one-leaf stage, rated visually after about 3 weeks vs untreated controls
Method: as §2, with “VIOTR: Viola tricolor” for “ABUTH: Abutilon theophrasti”

| Structure (SMILES) | Pre-emergence action against SETVI (Setaria viridis (SETVI) [1]) [%] | Post-emergence action against ABUTH [2] [%] | Pre-emergence action against AMARE [3] [%] | Pre-emergence action against VIOTR (Viola tricolor (VIOTR) [4]) [%] | Pre-emergence action against STEME (Stellaria media (STEME) [5]) [%] | Post-emergence action against SETVI (Setaria viridis (SETVI) [6]) [%] | Pre-emergence action against ECHCG [7] [%] | Post-emergence action against ECHCG [8] [%] | Pre-emergence action against ABUTH [9] [%] | Post-emergence action against STEME (Stellaria media (STEME) [10]) [%] | Post-emergence action against AMARE [11] [%] | Pre-emergence action against VERPE (Veronica persica (VERPE)) [%] | Post-emergence action against VIOTR (Viola tricolor (VIOTR) [12]) [%] |
| --- | --- | --- | --- | --- | --- | --- | --- | --- | --- | --- | --- | --- | --- |
| CCn1ncc(C(=O)c2ccc(C(F)(F)F)c3c2OCCS3)c1O [Example 1-20] | 100 | 80 | 100 | 100 | 100 | 80 | 100 | 80 | 100 |  |  |  |  |
| CCn1ncc(C(=O)c2ccc(C(F)(F)F)c3c2SCS3)c1O [Example 1-63] |  | 80 | 100 | 100 | 90 |  |  | 80 |  | 80 | 100 |  |  |
| Cc1nn(C)c(O)c1C(=O)c1ccc(C(F)(F)F)c2c1OCCS2 [Example 1-25] | 100 |  | 100 | 100 | 90 |  | 90 | 90 | 100 | 100 |  | 80 |  |
| Cn1nc(CCC(F)(F)F)c(C(=O)c2ccc(C(F)(F)F)c3c2OCS3)c1O [Example 1-127] |  |  |  |  |  |  |  |  |  |  |  |  | 80 |
| Cn1nc(C2CC2)c(C(=O)c2ccc(C(F)(F)F)c3c2OCCS3(=O)=O)c1O [Example 1-119] |  | 90 | 100 | 100 | 100 |  | 80 |  | 100 | 100 | 100 | 90 |  |
